Experimental data: patent US7915299B2, “2-(2-hydroxyphenyl)benzimidazoles useful for treating obesity and diabetes” (High Point Pharmaceuticals, LLC, priority 2006, dated 2011)

Structure (SMILES)	melting point
CSc1cc(C(C)(C)C)c(O)c(-c2nc3cc(S(=O)(=O)C(F)(F)F)ccc3[nH]2)c1C [Example 9, 6-tert-Butyl-3-methyl-4-methylsulfanyl-2-(5-trifluoromethanesulfonyl-1H-benzimidazol-2-yl)-phenol]	210 to 211 °C
Cc1ccc(C(C)(C)C)c(O)c1-c1nc2cc(C#N)ccc2[nH]1 [Example 4, 2-(3-tert-Butyl-2-hydroxy-6-methyl-phenyl)-1H-benzimidazole-5-carbonitrile]	212 to 215 °C
Cc1c(Cl)cc(C(C)(C)C)c(O)c1-c1nc2cc(OC(F)(F)F)ccc2[nH]1 [Example 7, 6-tert-Butyl-4-chloro-3-methyl-2-(5-trifluoromethoxy-1H-benzimidazol-2-yl)-phenol]	243 to 244 °C
CCN(CC)S(=O)(=O)c1ccc2[nH]c(-c3c(C)c(Cl)cc(C(C)(C)C)c3O)nc2c1 [Example 6, 2-(3-tert-Butyl-5-chloro-2-hydroxy-6-methyl-phenyl)-1H-benzimidazole-5-sulfonic acid diethylamide]	277 to 278 °C
Cc1c(F)cc(C(C)(C)C)c(O)c1-c1nc2ccc(S(=O)(=O)C(F)(F)F)cc2[nH]1 [Example 11, 6-tert-Butyl-4-fluoro-3-methyl-2-(5-trifluoromethanesulfonyl-1H-benzimidazol-2-yl)-phenol]	245 to 247 °C
Cc1c(Cl)cc(C(C)(C)C)c(O)c1-c1nc2cc(S(=O)(=O)C(F)(F)F)ccc2[nH]1 [Example 1, 6-tert-Butyl-4-chloro-3-methyl-2-(5-trifluoromethanesulfonyl-1H-benzimidazol-2-yl)-phenol]	253 to 254 °C

Now from value to compound:

melting point	Structure (SMILES)
55 to 56 °C	COc1ccc(C(C)(C)C)c(O)c1-c1nc2cc(S(=O)(=O)C(F)(F)F)ccc2[nH]1 [Example 8, 6-tert-Butyl-3-methoxy-2-(5-trifluoromethanesulfonyl-1H-benzimidazol-2-yl)-phenol]
235 to 236 °C	Cc1c(Br)cc(C(C)(C)C)c(O)c1-c1nc2cc(OC(F)(F)F)ccc2[nH]1 [Example 13, 6-tert-Butyl-4-bromo-3-methyl-2-(5-trifluoromethoxy-1H-benzimidazol-2-yl)-phenol]
218 to 220 °C	Cc1ccc(C(C)(C)C)c(O)c1-c1nc2ccc(S(=O)(=O)C(F)(F)F)cc2[nH]1 [Example 12, 6-tert-Butyl-3-methyl-2-(5-trifluoromethanesulfonyl-1H-benzimidazol-2-yl)-phenol]
